ChEMBL document CHEMBL5120831, “Pep5-based antitumor peptides containing multifunctional fragments with enhanced activity and synergistic effect” (Eur J Med Chem, 2022)
The source made the active and inactive calls. The rule behind the calls is not given here. Bridge positions count the residues as written; N and C are the ends. Peptide text beside a SMILES is read from it. I, II: the chains in the order shown.

Tests used:
A549 [1] = assay: Induction of apoptosis in human A549 cells assessed as reduction in viable cells at 15 uM measured after 24 hrs by Annexin V-FITC/propidium iodide staining based flow cytometry; format: functional, cell-based
HepG2 [2] = assay: Cytotoxicity against human HepG2 cells assessed as reduction in cell viability measured after 24 hrs by CCK-8 assay; format: functional, cell-based; settings: for IC50: HepG2, 24 h
[3] = Cytotoxicity against human L02 cells assessed as reduction in cell viability measured after 24 hrs by CCK-8 assay; format: toxicity, cell-based
[4] = Cytotoxicity against human BEAS-2B cells assessed as reduction in cell viability measured after 24 hrs by CCK-8 assay; format: toxicity, cell-based
BEAS-2B = assay: Induction of apoptosis in human BEAS-2B cells assessed as reduction in viable cells at 15 uM measured after 24 hrs by Annexin V-FITC/propidium iodide staining based flow cytometry; format: toxicity, cell-based
A549 [5] = assay: Cytotoxicity against human A549 cells assessed as reduction in cell viability measured after 24 hrs by CCK-8 assay; format: functional, cell-based; settings: for IC50: A549, 24 h
HepG2 [6] = assay: Induction of cell membrane disruption in human HepG2 cells assessed as increase in LDH release at 15 uM measured after 1 hr by LDH releasing reagent based assay
A549 [7] = assay: Induction of cell membrane disruption in human A549 cells assessed as increase in LDH release at 15 uM measured after 1 hr by LDH releasing reagent based assay
HepG2 [8] = assay: Induction of apoptosis in human HepG2 cells assessed as reduction in viable cells at 15 uM measured after 24 hrs by Annexin V-FITC/propidium iodide staining based flow cytometry; format: functional, cell-based
L02 = assay: Induction of apoptosis in human L02 cells assessed as reduction in viable cells at 15 uM measured after 24 hrs by Annexin V-FITC/propidium iodide staining based flow cytometry; format: toxicity, cell-based; settings: l02, 24 h
A549 [9] = assay: Induction of apoptosis in human A549 cells assessed as appearance of apoptotic bodies at 15 uM measured after 24 hrs by transmission electron microscopy; format: functional, cell-based
HepG2 [10] = assay: Induction of ROS generation in human HepG2 cells at 10 to 30 uM measured after 4 hrs by DCFH-DA reagent based fluorescence assay; format: functional, cell-based; settings: dose 10-30 µM
HepG2 [11] = assay: Antitumor activity against human HepG2 cells xenografted in BALB/c nude mouse assessed as induction of apoptosis at 25 to 50 uM, sc administered at 1 day interval for 9 days and measured on day 11 by TUNEL staining based assay; format: functional, organism-based; settings: dose 25-50 µM, time 11.0 day
HepG2 [12] = assay: Antitumor activity against human HepG2 cells xenografted in BALB/c nude mouse assessed as missing nuclei at 25 to 50 uM, sc administered at 1 day interval for 9 days and measured on day 11 by H and E staining based histological analysis; format: functional, organism-based; settings: dose 25-50 µM, time 11.0 day
A549 [13] = assay: Induction of apoptosis in human A549 cells assessed as cell membrane disruption at 15 uM measured after 24 hrs by transmission electron microscopy; format: functional, cell-based
Proteasome = assay: Inhibition of proteasome activity in human A549 cells measured after 4 hrs by luciferase assay; settings: dose 5-30 µM, DDE = dose-dependent effect
HepG2 [14] = assay: Antitumor activity against human HepG2 cells xenografted in sc dosed BALB/c nude mouse assessed as tumor growth inhibition administered at 1 day interval for 9 days; format: functional, organism-based; settings: dose 25-50 µM, time 9.0 day, DDE = dose-dependent effect
A549 [15] = assay: Induction of apoptosis in human A549 cells assessed as swollen mitochondria at 15 uM measured after 24 hrs by transmission electron microscopy; format: functional, cell-based
[16] = Toxicity in HepG2 cell xenografted BALB/c nude mouse assessed as change in body weight at 25 to 50 uM, sc administered at 1 day interval for 9 days; format: organism-based; settings: in vivo, 216 h, dose 25-50 µM, time 9 day
A549 [17] = assay: Induction of apoptosis in human A549 cells assessed as hollow mitochondria at 15 uM measured after 24 hrs by transmission electron microscopy; format: functional, cell-based
HepG2 [18] = assay: Induction of necrosis in human HepG2 cells assessed as releasing of large number of cell content into extracellular space at 30 uM measured after 24 hrs by transmission electron microscopy; format: functional, cell-based
A549 [19] = assay: Induction of necrosis in human A549 cells assessed as releasing of large number of cell content into extracellular space at 30 uM measured after 24 hrs by transmission electron microscopy; format: functional, cell-based
A549 [20] = assay: Induction of necrosis in human A549 cells assessed as cell membrane disruption at 30 uM measured after 24 hrs by transmission electron microscopy; format: functional, cell-based
A549 [21] = assay: Induction of apoptosis in human A549 cells assessed as chromatin condensation at 15 uM measured after 24 hrs by transmission electron microscopy; format: functional, cell-based
HepG2 [22] = assay: Antitumor activity against human HepG2 cells xenografted in BALB/c nude mouse assessed as reduction in tumor volume at 25 to 50 uM, sc administered at 1 day interval for 9 days; format: functional, organism-based; settings: dose 25-50 µM, time 9.0 day
HepG2 [23] = assay: Induction of apoptosis in human HepG2 cells assessed as swollen mitochondria at 15 uM measured after 24 hrs by transmission electron microscopy; format: functional, cell-based
HepG2 [24] = assay: Induction of necrosis in human HepG2 cells assessed as cell membrane disruption at 30 uM measured after 24 hrs by transmission electron microscopy; format: functional, cell-based
HepG2 [25] = assay: Induction of morphological changes in human HepG2 cells assessed as appearance of broken cell structure at 15 uM measured after 24 hrs by high-throughput microscopy; format: functional, cell-based
HepG2 [26] = assay: Induction of apoptosis in human HepG2 cells assessed as chromatin condensation at 15 uM measured after 24 hrs by transmission electron microscopy; format: functional, cell-based
HepG2 [27] = assay: Induction of apoptosis in human HepG2 cells assessed as hollow mitochondria at 15 uM measured after 24 hrs by transmission electron microscopy; format: functional, cell-based
HepG2 [28] = assay: Antitumor activity against human HepG2 cells xenografted in BALB/c nude mouse assessed as appearance of fuzzy boundary region at 25 to 50 uM, sc administered at 1 day interval for 9 days and measured on day 11 by H and E staining based histological analysis; format: functional, organism-based; settings: dose 25-50 µM, time 11.0 day
HepG2 [29] = assay: Induction of apoptosis in human HepG2 cells assessed as cell membrane disruption at 15 uM measured after 24 hrs by transmission electron microscopy; format: functional, cell-based
HepG2 [30] = assay: Induction of apoptosis in human HepG2 cells assessed as appearance of apoptotic bodies at 15 uM measured after 24 hrs by transmission electron microscopy; format: functional, cell-based
HepG2 [31] = assay: Induction of apoptosis in human HepG2 cells assessed as increase in late apoptotic cells at 15 uM measured after 24 hrs by Annexin V-FITC/propidium iodide staining based flow cytometry; format: functional, cell-based
A549 [32] = assay: Induction of apoptosis in human A549 cells assessed as increase in necrotic cells at 15 uM measured after 24 hrs by Annexin V-FITC/propidium iodide staining based flow cytometry; format: functional, cell-based
A549 [33] = assay: Induction of apoptosis in human A549 cells assessed as increase in late apoptotic cells at 15 uM measured after 24 hrs by Annexin V-FITC/propidium iodide staining based flow cytometry; format: functional, cell-based
HepG2 [34] = assay: Induction of morphological changes in human HepG2 cells assessed as appearance of abnormal cell morphology at 15 uM measured after 24 hrs by high-throughput microscopy; format: functional, cell-based
HepG2 [35] = assay: Induction of apoptosis in human HepG2 cells assessed as increase in necrotic cells at 15 uM measured after 24 hrs by Annexin V-FITC/propidium iodide staining based flow cytometry; format: functional, cell-based
HepG2 [36] = assay: Induction of morphological changes in human HepG2 cells assessed as decrease in cell number at 15 uM measured after 24 hrs by high-throughput microscopy; format: functional, cell-based

| Compound | IC50 (HepG2 [2]) | IC50 at 24 h [3] | IC50 at 24 h [4] | Activity (BEAS-2B) | IC50 (A549 [5]) | Activity (HepG2 [6]) | Activity (A549 [7]) | Activity (L02) | Activity (HepG2 [11]) | Activity (HepG2 [12]) | TGI (HepG2 [14]) | Activity [16] | Activity (HepG2 [22]) | Activity (HepG2 [28]) | further results |
| --- | --- | --- | --- | --- | --- | --- | --- | --- | --- | --- | --- | --- | --- | --- | --- |
| CC[C@H](C)[C@H](NC(=O)[C@H](CCCCN)NC(=O)[C@H](CC(N)=O)NC(=O)[C@H](CCCNC(=N)N)NC(=O)[C@H](Cc1ccccc1)NC(=O)[C@H](CCCCN)NC(=O)[C@H](CCCNC(=N)N)NC(=O)[C@H](CC(C)C)NC(=O)[C@H](CCCNC(=N)N)NC(=O)[C@H](CCCCNC(=O)[C@H](CCCCN)NC(=O)[C@H](CCC(=O)O)NC(=O)[C@H](CCCCN)NC(=O)[C@@H](NC(=O)[C@H](CCCCN)NC(=O)[C@H](CC(N)=O)NC(=O)[C@H](CCCNC(=N)N)NC(=O)[C@H](Cc1ccccc1)NC(=O)[C@H](CCCCN)NC(=O)[C@H](CCCNC(=N)N)NC(=O)[C@H](CC(C)C)NC(=O)[C@H](CCCNC(=N)N)NC(=O)[C@H](CCCCN)NC(=O)[C@H](CCCNC(=N)N)NC(=O)[C@H](CC(C)C)NC(=O)CN)[C@@H](C)CC)NC(=O)[C@H](CCCNC(=N)N)NC(=O)[C@H](CC(C)C)NC(=O)CN)C(=O)N[C@@H](CCCCN)C(=O)N[C@@H](CCC(=O)O)C(=O)N[C@@H](CCCCN)C(=O)O (I: H-GLRKRLRKFRNKIKEK / II: H-GLRKRLRKFRNKIKEK-OH; amide I:C-II:4) | 34.8 µM | 70.7 µM | 93.6 µM | Non-Toxic | 56.2 µM | Active | Active | Non-Toxic | – | – | – | – | – | – | Activity (A549 [1]): Active; Activity (HepG2 [8]): Active |
| I: H-WELVVLGKLLLHHLLHHLLHHGLRKRLRKFRNKIKEK / II: H-GLRKRLRKFRNKIKEK-NH2 (amide I:C-II:4) | 7.77 µM | 11.1 µM | 11.2 µM | Non-Toxic | 6.41 µM | Active | Active | Non-Toxic | Active | Active | Dde | Non-Toxic | Active | Active | Activity (A549 [9]): Active; Activity (HepG2 [10]): Active; Activity (A549 [13]): Active; inhibition (Proteasome): Dde; Activity (A549 [15]): Active; Activity (A549 [17]): Active; Activity (HepG2 [18]): Active; Activity (A549 [19]): Active; Activity (A549 [20]): Active; Activity (A549 [21]): Active; Activity (HepG2 [23]): Active; Activity (HepG2 [24]): Active; Activity (HepG2 [25]): Active; Activity (HepG2 [26]): Active; Activity (HepG2 [27]): Active; Activity (HepG2 [29]): Active; Activity (HepG2 [30]): Active |
| CC(C)C[C@H](NC(=O)[C@H](CCCCN)NC(=O)CNC(=O)[C@H](CC(C)C)NC(=O)[C@@H](NC(=O)[C@@H](NC(=O)[C@H](CC(C)C)NC(=O)[C@H](CCC(=O)O)NC(=O)[C@@H](N)Cc1c[nH]c2ccccc12)C(C)C)C(C)C)C(=O)N[C@@H](Cc1ccc(O)cc1)C(=O)NCC(=O)N[C@@H](CCCNC(=N)N)C(=O)N[C@@H](CCCCN)C(=O)N[C@@H](CCCCN)C(=O)N[C@@H](CCCNC(=N)N)C(=O)N[C@@H](CCCNC(=N)N)C(=O)N[C@@H](CCC(N)=O)C(=O)N[C@@H](CCCNC(=N)N)C(=O)N[C@@H](CCCNC(=N)N)C(=O)N[C@@H](CCCNC(=N)N)C(=O)O (H-WELVVLGKLYGRKKRRQRRR-OH) | 31.2 µM | 63.9 µM | 32.9 µM | Non-Toxic | 30.9 µM | Active | Active | Non-Toxic | Active | Active | Dde | Non-Toxic | Active | Active | Activity (HepG2 [31]): Active; Activity (A549 [32]): Active; Activity (A549 [33]): Active; Activity (HepG2 [34]): Active; Activity (HepG2 [2]; DDE = dose-dependent effect): Dde; Activity (A549 [5]; DDE = dose-dependent effect): Dde; Activity (HepG2 [35]): Active; Activity (HepG2 [36]): Active |
